Laboratory results: publication PMC3095212 (Journal of immunology (Baltimore, Md. : 1950), 2011)
Blank lines part the entries; values can stand above or below the molecule they belong to. Residues, ends and D or L forms follow the SMILES beside them.

How the values were obtained:
K^b = conditions: ref [28]; cited from earlier work
CD8-negative 2C T cells = assay: T cell stimulation/antagonism, secreted IL-2; assay type: cell-based, mouse; conditions: 24 h
[1] = system: CD8-negative m33 Y48βA T cells; assay: T cell stimulation/antagonism, secreted IL-2; assay type: cell-based, mouse; conditions: 24 h
CD8-negative m33 T cells = conditions: 24 h

Molecule: SIINFEKL [OVA]
- half-life of OVA/K^b (K^b): 23 h

- IC50 (CD8-negative 2C T cells): 0.44 ± 0.27 nM
- IC50 [1]: 4.7 ± 0.4 nM
Molecule: CC(C)C[C@H](NC(=O)[C@H](CC(=O)O)NC(=O)[C@H](Cc1ccccc1)NC(=O)[C@@H]1CCCN1C(=O)[C@H](CCCNC(=N)N)NC(=O)[C@@H]1CCCN1C(=O)[C@H](CO)NC(=O)[C@H](CC(C)C)NC(=O)[C@@H](N)CCC(N)=O)C(=O)O [QL9 F5R] (H-QLSPRPFDL-OH)

- IC50 (CD8-negative m33 T cells): 0.15 nM
Molecule: CC[C@H](C)[C@H](NC(=O)[C@@H](N)CO)C(=O)N[C@@H](Cc1ccc(O)cc1)C(=O)N[C@@H](C)C(=O)N[C@@H](Cc1ccc(O)cc1)C(=O)N[C@@H](Cc1ccc(O)cc1)C(=O)NCC(=O)N[C@@H](CC(C)C)C(=O)O [SIY R4A] (H-SIYAYYGL-OH)
